From paper PMC10600239, “Selective MCL-1 inhibitor ABBV-467 is efficacious in tumor models but is associated with cardiac troponin increases in patients” (Communications Medicine, 2023)
Several values for one entry are separate records, joined by “and”; a condition that tells them apart may be missing. Identical values can stand only once.

Test system: AMO-1 xenografts
Assay: AMO-1 xenograft efficacy (tumor volume, body weight)
Type: in vivo, mouse
Details: for % Weight Change (individual weights) / Weight, g (individual weights): individual animal, Day 21; for Xenograft AMO-1 (DSMZ) (mm³) Day 16 / Xenograft AMO-1 (DSMZ) (mm³) Day 19: tumor volume
Procedure: All animal studies were conducted in accordance with the guidelines approved by the Institutional Animal Care and Use Committees of AbbVie. The research protocol was approved by In Vivo Pharmacology at AbbVie prior to study initiation but was not publicly registered or disclosed. Female C.B-17 SCID-beige mice (AMO-1, OPM-2, NCI-H929, and OCI-AML2 xenografts) and female NSG mice (MV4-11-Red.Fluc systemic) were purchased from Charles River Laboratories (Wilmington, MA). Animals were housed in a light cycle-controlled room with HEPA filtration at 22 °C. Animals had nesting and climbing cage topper as the primary environmental enrichment. Animals were inoculated subcutaneously in the right flank with 5 × 10^6 (AMO-1, OPM-2, NCI-H929, and OCI-AML2) or intravenous (IV) with 5 × 10^6 (MV4-11-Red.Fluc). The inoculation volume (0.2 mL) comprised a 50:50 mixture of cells in growth media and Matrigel (BD Biosciences) for subcutaneous injections and 100% phosphate-buffered saline for IV administration. All cell lines used in this publication were authenticated using IDEXX for STR profiling as well as their IMPACT and human IMPACT panels for pathogen screening. Electronic calipers were used to measure the length and width of each tumor 2 to 3 times per week. Tumor volume was estimated by applying the following equation: volume = length × width^2/2. All groups remained blinded during measurements and dosing; only veterinary staff were aware of group identity. When tumors reached approximately 200 mm^3, mice were randomized by match and distributed into treatment and control groups. All xenograft trials were conducted using 5 to 10 mice per group, and all mice were ear tagged and monitored individually throughout the studies. […] Tumor burden in the systemic MV4-11-Red.Fluc experiment was measured using an IVIS® spectrum from PerkinElmer by taking the total photon flux of the entire dorsal side of an individual mouse. […] A background control mouse that was tumor naive but received D-Luciferin was placed in the upper left corner of each image. The total flux from this animal was subtracted from the total flux of each animal present in the image.
For in vivo studies, maximal tumor growth inhibition (TGI) was calculated as the greatest treatment response using the following equation: Maximal TGI = (1 − mean tumor volume of the treated group/mean tumor volume of the vehicle control group) × 100. The tumor growth delay (TGD) percentage was determined as the percentage increase of the median time period for the treatment group to reach an arbitrary tumor volume of 1000 mm^3 relative to the vehicle control group. […] A power analysis was conducted using historical data to determine the number of animals required to yield significance of 0.05 at a 30% difference. […] Data from experiments in vivo were analyzed using the student’s t-test for TGI values and the Mann–Whitney U test for TGD using Excel and GraphPad Prism. Fisher’s exact test was used to probe significance of differences in response frequency.

[1] = 25 mg/kg, Q7Dx2, IV, SCID-beige female mice, Day 91
[2] = Day 14, 6.25 mg/kg Q7Dx2 IV, control Group 01
[3] = Day 14, 25 mg/kg Q7Dx2 IV, control Group 01
[4] = Day 80, 25 mg/kg Q7Dx2 IV, SCID-beige female mice
[5] = Day 82, 25 mg/kg Q7Dx2 IV, SCID-beige female mice
[6] = SCID-beige female mice, 25 mg/kg Q7Dx2 IV, Day 47, remaining animals
[7] = SCID-beige female mice, 25 mg/kg Q7Dx2 IV, Day 75
[8] = SCID-beige female mice, 25 mg/kg Q7Dx2 IV, Day 88, surviving animals
[9] = control Group 01, 6.25 mg/kg Q7Dx2 IV
[10] = control Group 01, 25 mg/kg Q7Dx2 IV

## Cc1c(Cl)c2c(Cl)c(C)c1-c1c(-c3ccc(F)cc3)sc3ncnc(c13)O[C@@H](C(=O)O)Cc1cc(ccc1OCc1ccnc(-c3ccc(OC[C@H]4COCCO4)cc3)n1)OC[C@@H](CN1CCN(C)CC1)O2 [Compound A-1747745.0]
[1]
  Xenograft AMO-1 (DSMZ) tumor volume Day 91, Mean: 22.37 mm³
  Xenograft AMO-1 (DSMZ) tumor volume Day 91, Median: 22.37 mm³
  Xenograft AMO-1 (DSMZ) tumor volume Day 91, individual animal: 22 mm³
AMO-1 (DSMZ) xenograft, SCID-beige mouse, 6.25 mg/kg IV Q7Dx2
  % Mortality: 100.00%
AMO-1 (DSMZ) xenograft, SCID-beige mouse, 25 mg/kg IV Q7Dx2
  % Mortality: 100.00%
AMO-1 (DSMZ) xenograft, SCID-beige mouse, 25 mg/kg IV Q7Dx2, day 21
  % BW Loss: -2% (day 21)
[2]
  Body Weight Day 14, % T/C (mean): 96.25%
  Body Weight Day 14, % T/C (median): 96.25%
[3]
  Body Weight Day 14, % T/C (mean): 98.12%
  Body Weight Day 14, % T/C (median): 98.12%
[4]
  Xenograft AMO-1 (DSMZ) tumor volume, Mean: 10.80 mm³
  Xenograft AMO-1 (DSMZ) tumor volume, Median: 10.80 mm³
  Xenograft AMO-1 (DSMZ) tumor volume, individual animal: 11 mm³
[5]
  Xenograft AMO-1 (DSMZ) tumor volume, Mean: 12.07 mm³
  Xenograft AMO-1 (DSMZ) tumor volume, Median: 12.07 mm³
  Xenograft AMO-1 (DSMZ) tumor volume, individual animal: 12 mm³
SCID-beige female mice, 25 mg/kg Q7Dx2 IV, Day 47
  Xenograft AMO-1 (DSMZ) tumor volume Day 47 (individual animal): 8 mm³
[6]
  Xenograft AMO-1 (DSMZ) tumor volume Day 47, Mean: 8.10 mm³
  Xenograft AMO-1 (DSMZ) tumor volume Day 47, Median: 8.10 mm³
[7]
  Xenograft AMO-1 (DSMZ) Day 75 tumor volume, Mean: 13.50 mm³
  Xenograft AMO-1 (DSMZ) Day 75 tumor volume, Median: 13.50 mm³
  Xenograft AMO-1 (DSMZ) Day 75 tumor volume, individual animals: 14 mm³
SCID-beige female mice, 25 mg/kg Q7Dx2 IV, Day 88
  Xenograft AMO-1 (DSMZ) Day 88 (tumor volume, individual animals): 15 mm³
[8]
  Xenograft AMO-1 (DSMZ) Day 88, Mean: 14.75 mm³
  Xenograft AMO-1 (DSMZ) Day 88, Median: 14.75 mm³
Group mean tumor volume of remaining animals, SCID-beige female mice, 25 mg/kg Q7Dx2 IV, Day 84
  Xenograft AMO-1 (DSMZ) (mm³) Day 84, Mean: 5.32 mm³
Group mean, Day 16, 3.13 mg/kg QDx1 IV
  Xenograft AMO-1 (DSMZ) (mm³) Day 16 Mean: 205.11 mm³
Group mean, Day 16, 6.25 mg/kg QDx1 IV
  Xenograft AMO-1 (DSMZ) (mm³) Day 16 Mean: 172.06 mm³
Group mean, Day 19, 3.13 mg/kg QDx1 IV
  Xenograft AMO-1 (DSMZ) (mm³) Day 19 Mean: 192.25 mm³
Group mean, Day 19, 6.25 mg/kg QDx1 IV
  Xenograft AMO-1 (DSMZ) (mm³) Day 19 Mean: 133.62 mm³
Group mean, 25 mg/kg Q7Dx2 IV, SCID-beige mice, Day 70
  Xenograft AMO-1 (DSMZ) (mm³) Day 70, Mean: 24.72 mm³
Group median tumor volume of remaining animals, SCID-beige female mice, 25 mg/kg Q7Dx2 IV, Day 84
  Xenograft AMO-1 (DSMZ) (mm³) Day 84, Median: 5.32 mm³
Group median, Day 16, 3.13 mg/kg QDx1 IV
  Xenograft AMO-1 (DSMZ) (mm³) Day 16 Median: 207.59 mm³
Group median, Day 16, 6.25 mg/kg QDx1 IV
  Xenograft AMO-1 (DSMZ) (mm³) Day 16 Median: 173.79 mm³
Group median, Day 19, 3.13 mg/kg QDx1 IV
  Xenograft AMO-1 (DSMZ) (mm³) Day 19 Median: 202.67 mm³
Group median, Day 19, 6.25 mg/kg QDx1 IV
  Xenograft AMO-1 (DSMZ) (mm³) Day 19 Median: 134.81 mm³
Group median, 25 mg/kg Q7Dx2 IV, SCID-beige mice, Day 70
  Xenograft AMO-1 (DSMZ) (mm³) Day 70, Median: 24.72 mm³
Individual animal tumor volume, SCID-beige female mice, 25 mg/kg Q7Dx2 IV, Day 84
  Xenograft AMO-1 (DSMZ) (mm³) Day 84: 5.32 mm³
6.25 mg/kg IV Q7Dx2
  % Weight Change (individual weights): 0.65%
  Weight, g (individual weights): 22.14 g
25 mg/kg IV Q7Dx2
  % Weight Change (individual weights): -1.91%
  Weight, g (individual weights): 22.00 g
Individual animals, Day 14, 3.13 mg/kg QDx1 IV
  Body Weight (g) Day 14: 22 g
Individual animals, Day 14, 6.25 mg/kg QDx1 IV
  Body Weight (g) Day 14: 22 g
Individual animals, 25 mg/kg Q7Dx2 IV, SCID-beige mice, Day 70
  Xenograft AMO-1 (DSMZ) (mm³) Day 70: 25 mm³
Day 14, 3.13 mg/kg QDx1 IV
  Body Weight Day 14, % T/C (mean): 102.98%
  Body Weight Day 14, % T/C (median): 102.98%
Day 14, 6.25 mg/kg QDx1 IV
  Body Weight Day 14, % T/C (mean): 102.98%
  Body Weight Day 14, % T/C (median): 102.98%
Day 16, 3.13 mg/kg QDx1 IV
  Xenograft AMO-1 Day 16 % T/C (mean): 61.23%
  Xenograft AMO-1 Day 16 % T/C (median): 62.33%
Day 16, 6.25 mg/kg QDx1 IV
  Xenograft AMO-1 Day 16 % T/C (mean): 51.36%
  Xenograft AMO-1 Day 16 % T/C (median): 52.18%
Day 19, 3.13 mg/kg QDx1 IV
  Xenograft AMO-1 Day 19 % T/C (mean): 44.28%
  Xenograft AMO-1 Day 19 % T/C (median): 51.55%
Day 19, 6.25 mg/kg QDx1 IV
  Xenograft AMO-1 Day 19 % T/C (mean): 30.78%
  Xenograft AMO-1 Day 19 % T/C (median): 34.29%
[9]
  % T/C (mean), Body Weight Day 21: 96.87%
  % T/C (median), Body Weight Day 21: 96.87%
[10]
  % T/C (mean), Body Weight Day 21: 96.25%
  % T/C (median), Body Weight Day 21: 96.25%
mouse, in vivo, iv, 3.13 mg/kg
  Relative to initial body wt., %: 0.00%
mouse, in vivo, iv, 6.25 mg/kg
  Body Weight (g) Day 14 (individual animals): 22 g
  Body Weight (g) Day 14, Mean: 22.00 g
  Body Weight (g) Day 14, Median: 22.00 g
  Body Weight (g) Day 21: 22 g
  Body Weight (g) Day 21 Mean: 22.14 g
  Body Weight (g) Day 21 Median: 22.14 g
mouse, in vivo, iv, 25 mg/kg
  Body Weight (g) Day 14 (individual animals): 22 g
  Body Weight (g) Day 14, Mean: 22.43 g
  Body Weight (g) Day 14, Median: 22.43 g
  Body Weight (g) Day 21: 22 g
  Body Weight (g) Day 21 Mean: 22.00 g
  Body Weight (g) Day 21 Median: 22.00 g
Individual animals, Day 16, 3.13 mg/kg QDx1 IV
  Xenograft AMO-1 (DSMZ) (mm³) Day 16: 195 mm³ and 171 mm³ and 227 mm³ and 217 mm³ and 219 mm³ and 212 mm³ and 203 mm³ and 196 mm³
Individual animals, Day 16, 6.25 mg/kg QDx1 IV
  Xenograft AMO-1 (DSMZ) (mm³) Day 16: 158 mm³ and 174 mm³ (2×) and 187 mm³ and 182 mm³ and 167 mm³ and 173 mm³ and 160 mm³
Individual animals, Day 19, 3.13 mg/kg QDx1 IV
  Xenograft AMO-1 (DSMZ) (mm³) Day 19: 210 mm³ and 196 mm³ and 181 mm³ and 173 mm³ and 128 mm³ and 213 mm³ and 209 mm³ and 227 mm³
Individual animals, Day 19, 6.25 mg/kg QDx1 IV
  Xenograft AMO-1 (DSMZ) (mm³) Day 19: 142 mm³ and 122 mm³ and 113 mm³ and 105 mm³ and 128 mm³ and 144 mm³ and 162 mm³ and 152 mm³
